Columns and labels:
[1] = test system: E. coli ATCC 25922 (SEN) and E. coli NCTC13846 (MDR); experiment: Adaptive laboratory evolution (ALE), relative MIC of evolved lines; type: cell-based, Escherichia coli
Method in brief: (§1)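 Ten parallel populations per antibiotic–ancestor pair were evolved in MHB at 37 °C, starting near 50% growth-inhibiting drug. Every 72 h they were passaged into 0.5–2.5× increasing concentrations, keeping the highest-drug well with OD600 > 0.2.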

[2] = test system: A. baumannii ATCC 17978 (SEN) and A. baumannii ATCC BAA-1605 (MDR); experiment: as above; type: cell-based, Acinetobacter baumannii
Method in brief: as §1

`C[C@@H](O)[C@H]1C(=O)N2C(C(=O)O)=C(S[C@H]3CC[S@@+]([O-])C3)S[C@H]12` [Sulopenem] was tested, and the MIC of evolved line ([1]; EC-MDR (E. coli NCTC 13846), evolved line 1 of the given antibiotic) was 16 µg/mL, the “Relative MIC” value ([1]; EC-MDR (E. coli NCTC 13846), evolved line 1 vs ancestor) was 512 and the MIC of evolved line ([1]; EC-MDR (E. coli NCTC 13846), evolved line 2 of the given antibiotic) was 0.5 µg/mL. The “Relative MIC” value ([1]; EC-MDR (E. coli NCTC 13846), evolved line 2 vs ancestor) was 16, the MIC of evolved line ([1]; EC-MDR (E. coli NCTC 13846), evolved line 3 of the given antibiotic) was 4 µg/mL and the “Relative MIC” value ([1]; EC-MDR (E. coli NCTC 13846), evolved line 3 vs ancestor) was 128. The MIC of evolved line ([1]; EC-MDR (E. coli NCTC 13846), evolved line 4 of the given antibiotic) was 4 µg/mL, the “Relative MIC” value ([1]; EC-MDR (E. coli NCTC 13846), evolved line 4 vs ancestor) was 128 and the MIC of evolved line ([1]; EC-MDR (E. coli NCTC 13846), evolved line 5 of the given antibiotic) was 16 µg/mL. For the same compound, the “Relative MIC” value ([1]; EC-MDR (E. coli NCTC 13846), evolved line 5 vs ancestor) was 512, the MIC of evolved line ([1]; EC-MDR (E. coli NCTC 13846), evolved line 7 of the given antibiotic) was 0.5 µg/mL and the “Relative MIC” value ([1]; EC-MDR (E. coli NCTC 13846), evolved line 7 vs ancestor) was 16. The MIC of evolved line ([1]; EC-MDR (E. coli NCTC 13846), evolved line 8 of the given antibiotic) was 4 µg/mL, the “Relative MIC” value ([1]; EC-MDR (E. coli NCTC 13846), evolved line 8 vs ancestor) was 128 and the MIC of evolved line ([1]; EC-MDR (E. coli NCTC 13846), evolved line 9 of the given antibiotic) was 8 µg/mL. The “Relative MIC” value ([1]; EC-MDR (E. coli NCTC 13846), evolved line 9 vs ancestor) was 256, the MIC of evolved line ([1]; EC-MDR (E. coli NCTC 13846), evolved line 10 of the given antibiotic) was 4 µg/mL and the “Relative MIC” value ([1]; EC-MDR (E. coli NCTC 13846), evolved line 10 vs ancestor) was 128. The “Relative MIC (log10)” value ([1]; EC-MDR (Escherichia coli NCTC 13846), evolved line 4) was 2.107 log10, the “Relative MIC (log10)” value ([1]; EC-MDR (Escherichia coli NCTC 13846), evolved line 5) was 2.709 log10 and the “Relative MIC (log10)” value ([1]; EC-MDR (Escherichia coli NCTC 13846), evolved line 8) was 2.107 log10. For the same compound, the “Relative MIC (log10)” value ([1]; EC-MDR (Escherichia coli NCTC 13846), evolved line 9) was 2.408 log10, the “Relative MIC (log10)” value ([1]; EC-MDR (Escherichia coli NCTC 13846), evolved line 10) was 2.107 log10 and the MIC of evolved line ([1]; EC-SEN (E. coli ATCC 25922), evolved line 5 of the given antibiotic) was 0.25 µg/mL. The “Relative MIC” value ([1]; EC-SEN (E. coli ATCC 25922), evolved line 5 vs ancestor) was 8, the MIC of evolved line ([1]; EC-SEN (E. coli ATCC 25922), evolved line 6 of the given antibiotic) was 0.25 µg/mL and the “Relative MIC” value ([1]; EC-SEN (E. coli ATCC 25922), evolved line 6 vs ancestor) was 8. The MIC of evolved line ([1]; EC-SEN (E. coli ATCC 25922), evolved line 7 of the given antibiotic) was 0.25 µg/mL, the “Relative MIC” value ([1]; EC-SEN (E. coli ATCC 25922), evolved line 7 vs ancestor) was 8 and the MIC of evolved line ([1]; EC-SEN (E. coli ATCC 25922), evolved line 8 of the given antibiotic) was 0.25 µg/mL. For the same compound, the “Relative MIC” value ([1]; EC-SEN (E. coli ATCC 25922), evolved line 8 vs ancestor) was 8, the MIC of evolved line ([1]; EC-SEN (E. coli ATCC 25922), evolved line 9 of the given antibiotic) was 0.125 µg/mL and the “Relative MIC” value ([1]; EC-SEN (E. coli ATCC 25922), evolved line 9 vs ancestor) was 4. The MIC of evolved line ([1]; EC-SEN (E. coli ATCC 25922), evolved line 10 of the given antibiotic) was 0.125 µg/mL, the “Relative MIC” value ([1]; EC-SEN (E. coli ATCC 25922), evolved line 10 vs ancestor) was 4 and the “Relative MIC (log10)” value ([1]; EC-SEN (Escherichia coli ATCC 25922), evolved line 6) was 0.9031 log10. The “Relative MIC (log10)” value ([1]; EC-SEN (Escherichia coli ATCC 25922), evolved line 7) was 0.9031 log10, the “Relative MIC (log10)” value ([1]; EC-SEN (Escherichia coli ATCC 25922), evolved line 8) was 0.9031 log10 and the “Relative MIC (log10)” value ([1]; EC-SEN (Escherichia coli ATCC 25922), evolved line 9) was 0.6021 log10. The “Relative MIC (log10)” value ([1]; EC-SEN (Escherichia coli ATCC 25922), evolved line 10) was 0.6021 log10, the “Relative MIC” value ([1]; Escherichia coli ATCC 25922 (EC-SEN), evolved line 5) was 8 and the “Relative MIC” value ([1]; Escherichia coli ATCC 25922 (EC-SEN), evolved line 6) was 8. The “Relative MIC” value ([1]; Escherichia coli ATCC 25922 (EC-SEN), evolved line 7) was 8, the “Relative MIC” value ([1]; Escherichia coli ATCC 25922 (EC-SEN), evolved line 8) was 8 and the “Relative MIC” value ([1]; Escherichia coli ATCC 25922 (EC-SEN), evolved line 9) was 4. The “Relative MIC” value ([1]; Escherichia coli ATCC 25922 (EC-SEN), evolved line 10) was 4, the “Relative MIC” value ([1]; Escherichia coli NCTC 13846 (EC-MDR), evolved line 1) was 512 and the “Relative MIC” value ([1]; Escherichia coli NCTC 13846 (EC-MDR), evolved line 2) was 16. The “Relative MIC” value ([1]; Escherichia coli NCTC 13846 (EC-MDR), evolved line 3) was 128, the “Relative MIC” value ([1]; Escherichia coli NCTC 13846 (EC-MDR), evolved line 4) was 128 and the “Relative MIC” value ([1]; Escherichia coli NCTC 13846 (EC-MDR), evolved line 5) was 512. For the same compound, the “Relative MIC” value ([1]; Escherichia coli NCTC 13846 (EC-MDR), evolved line 7) was 16, the “Relative MIC” value ([1]; Escherichia coli NCTC 13846 (EC-MDR), evolved line 8) was 128 and the “Relative MIC” value ([1]; Escherichia coli NCTC 13846 (EC-MDR), evolved line 9) was 256. The “Relative MIC” value ([1]; Escherichia coli NCTC 13846 (EC-MDR), evolved line 10) was 128, the MIC of evolved line ([2]; AB-SEN (A. baumannii ATCC 17978), evolved line 1 of the given antibiotic) was 8 µg/mL and the “Relative MIC” value ([2]; AB-SEN (A. baumannii ATCC 17978), evolved line 1 vs ancestor) was 8. The MIC of evolved line ([2]; AB-SEN (A. baumannii ATCC 17978), evolved line 2 of the given antibiotic) was 1 µg/mL, the “Relative MIC” value ([2]; AB-SEN (A. baumannii ATCC 17978), evolved line 2 vs ancestor) was 1 and the MIC of evolved line ([2]; AB-SEN (A. baumannii ATCC 17978), evolved line 3 of the given antibiotic) was 16 µg/mL. The “Relative MIC” value ([2]; AB-SEN (A. baumannii ATCC 17978), evolved line 3 vs ancestor) was 16, the MIC of evolved line ([2]; AB-SEN (A. baumannii ATCC 17978), evolved line 4 of the given antibiotic) was 16 µg/mL and the “Relative MIC” value ([2]; AB-SEN (A. baumannii ATCC 17978), evolved line 4 vs ancestor) was 16. For the same compound, the MIC of evolved line ([2]; AB-SEN (A. baumannii ATCC 17978), evolved line 5 of the given antibiotic) was 64 µg/mL, the “Relative MIC” value ([2]; AB-SEN (A. baumannii ATCC 17978), evolved line 5 vs ancestor) was 64 and the MIC of evolved line ([2]; AB-SEN (A. baumannii ATCC 17978), evolved line 6 of the given antibiotic) was 16 µg/mL. For the same compound, the “Relative MIC” value ([2]; AB-SEN (A. baumannii ATCC 17978), evolved line 6 vs ancestor) was 16, the MIC of evolved line ([2]; AB-SEN (A. baumannii ATCC 17978), evolved line 7 of the given antibiotic) was 16 µg/mL and the “Relative MIC” value ([2]; AB-SEN (A. baumannii ATCC 17978), evolved line 7 vs ancestor) was 16. The MIC of evolved line ([2]; AB-SEN (A. baumannii ATCC 17978), evolved line 8 of the given antibiotic) was 8 µg/mL, the “Relative MIC” value ([2]; AB-SEN (A. baumannii ATCC 17978), evolved line 8 vs ancestor) was 8 and the MIC of evolved line ([2]; AB-SEN (A. baumannii ATCC 17978), evolved line 9 of the given antibiotic) was 16 µg/mL. For the same compound, the “Relative MIC” value ([2]; AB-SEN (A. baumannii ATCC 17978), evolved line 9 vs ancestor) was 16, the “Relative MIC (log10)” value ([2]; AB-SEN (Acinetobacter baumannii ATCC 17978), evolved line 1) was 0.9031 log10 and the “Relative MIC (log10)” value ([2]; AB-SEN (Acinetobacter baumannii ATCC 17978), evolved line 3) was 1.204 log10. For the same compound, the “Relative MIC (log10)” value ([2]; AB-SEN (Acinetobacter baumannii ATCC 17978), evolved line 5) was 1.806 log10, the “Relative MIC (log10)” value ([2]; AB-SEN (Acinetobacter baumannii ATCC 17978), evolved line 9) was 1.204 log10 and the “Relative MIC (log10)” value ([2]; AB-SEN, Acinetobacter baumannii ATCC 17978, evolved line 7) was 1.204 log10. For the same compound, the “Relative MIC” value ([2]; Acinetobacter baumannii ATCC 17978 (AB-SEN), evolved line 1) was 8, the “Relative MIC” value ([2]; Acinetobacter baumannii ATCC 17978 (AB-SEN), evolved line 2) was 1 and the “Relative MIC” value ([2]; Acinetobacter baumannii ATCC 17978 (AB-SEN), evolved line 3) was 16. The “Relative MIC” value ([2]; Acinetobacter baumannii ATCC 17978 (AB-SEN), evolved line 4) was 16, the “Relative MIC” value ([2]; Acinetobacter baumannii ATCC 17978 (AB-SEN), evolved line 5) was 64 and the “Relative MIC” value ([2]; Acinetobacter baumannii ATCC 17978 (AB-SEN), evolved line 6) was 16. For the same compound, the “Relative MIC” value ([2]; Acinetobacter baumannii ATCC 17978 (AB-SEN), evolved line 7) was 16, the “Relative MIC” value ([2]; Acinetobacter baumannii ATCC 17978 (AB-SEN), evolved line 8) was 8 and the “Relative MIC” value ([2]; Acinetobacter baumannii ATCC 17978 (AB-SEN), evolved line 9) was 16.

— PMC11845477, “Exploring the principles behind antibiotics with limited resistance” (Nature Communications, 2025)
